Reference: patent US20100190715A1, “Stable Formulations of Peptides” (Novo Nordisk A/S, priority 2003, published 2010)

Key:
[1] = Proton NMR spectroscopy of solvent and buffer effects on structure and dynamics in solution; type: physicochemical
Method: FIG. 10. Proton NMR spectrum of acylated GLP-1 with different additives at pH 7.9. N-terminal histidine signals of the imidazol sidechain are observed at approx 7.80 ppm and 7.00 ppm. The linewidth and position reflects the reduced flexibility of the N-terminal. NMR samples were prepared with 6 mg/ml acylated GLP-1 at pH 7.9 dissolved in 90%/10% H2O/D2O. NMR spectra were recorded at 600 MHz using a Varian Inova 600 MHz NMR instrument using 5 mm samples tubes. Sample volumes were 800 ul and spectra were measured at 27 degrees Celsius
FIG. 11. Amide protons of glu-9 (8.65 ppm) and gly-10 (8.42 ppm) under the same conditions as in FIG. 10. More intense amide proton signals reflect that these protons are relatively better shielded structurally from exchange with the water.
Proton NMR spectroscopy of proteins in solutions has become a powerful technique to study structure and dynamics of a pure protein in solution (Wüthrich, K, “NMR of Proteins and Nucleic Acids”, (1986), ISBN 0-471-82893-9). Each proton (or proton group) in a protein will give rise to a resonance peak at a frequency which depends on the chemical and physical environment in the vicinity of each proton (or proton group) in the protein. A skilled artisan in the field of protein NMR spectroscopy will be able to assign most of the resonance peaks of a proton NMR spectrum of a protein to specific protons (or proton groups) in the protein given that the actual behavior of the protein in solution give rise to a well resolved proton NMR spectrum (well known to the skilled artisan in the field). The line width of the resonance peaks in the protein NMR spectrum reflects to some extend the size and dynamic properties of the protein in solution.
Aqueous solution of acylated GLP-1 at concentrations between 1 and 30 mg/ml, with or without buffers in the pH range 7.0 to 8.2 give rise to NMR spectra that to a high extend allow the afore mentioned resonance assignment. Thus several resonances of the NMR spectrum of this peptide can be assigned to specific atomic groups in the peptide. Recording NMR spectra of acylated GLP-1 under the conditions mentioned above but with different buffer substances in the solution allows a direct comparison of the structural and dynamical changes that acylated GLP-1 undergo as different buffers are applied.

[2] = ThT fluorescence assay of fibril formation (physical stability); type: physicochemical
Method: FIG. 1. ThT fluorescence assay of fibril formation in acylated GLP-1 samples. The samples contain 6 mg/ml acylated GLP-1, 5 μM ThT dissolved in water and adjusted to the stated pH. Experimental conditions are described in “Examples”. Briefly, the samples were incubated at 40° C. and shaken with 960 rpm in an Ascent Fluoroskan fluorescence plate reader. All data points are from the same experiment (i.e. all samples are from the same microtiterplate) and are means of eight replica and shown with standard deviations as error bars. Furthermore, these values at 20 and 40 hours are tabulated for each sample.
Low physical stability of a peptide may lead to amyloid fibril formation, which is observed as well-ordered, thread-like macromolecular structures in the sample eventually resulting in gel formation. This has traditionally been measured by visual inspection of the sample. However, that kind of measurement is very subjective and depending on the observer. Therefore, the application of a small molecule indicator probe is much more advantageous. Thioflavin T (ThT) is such a probe and has a distinct fluorescence signature when binding to fibrils [Naiki et al. (1989) Anal. Biochem. 177, 244-249; LeVine (1999) Methods. Enzymol. 309, 274-284].
The time course for fibril formation can be described by a sigmoidal curve with the following expression [Nielsen et al. (2001) Biochemistry 40, 6036-6046]:
Here, F is the ThT fluorescence at the time t (see FIG. 12). The constant t0 is the time needed to reach 50% of maximum fluorescence. The two important parameters describing fibril formation are the lag-time calculated by t0−2τ and the apparent rate constant kapp=1/τ.
Samples were prepared freshly before each assay. Usually, acylated GLP-1 was dissolved to 6 mg/ml in desired buffer or solvent. The pH of the sample was adjusted to the desired value using appropriate amounts of concentrated NaOH and HClO4. Thioflavin T was added to the samples from a 1 mM stock solution in H2O to a final concentration of 5 μM.
Sample aliquots of 100 μl were placed in a 96 well microtiter plate (Packard Opti-Plate™-96, white polystyrene). Usually, eight replica of each sample (corresponding to one test condition) was placed in one column of wells. The plate was sealed with Scotch Pad (Qiagen).
Incubation at given temperature, shaking and measurement of the ThT fluorescence emission were done in a Fluoroskan Ascent FL fluorescence platereader (Thermo Labsystems). Temperature setting is possible up till 45° C., but usually sat at 40° C. The orbital shaking is selectable up till 1200 rpm, but adjusted to 960 rpm with an amplitude of 1 mm in all the presented data. Fluorescence measurement was done using excitation through a 444 nm filter and measurement of emission through a 485 nm filter.
Each run was initiated by incubating the plate at the assay temperature for 10 min. The plate was measured each hour for typically 45 hours. Between each measurement, the plate was shaken and heated as adjusted.
The measurement points were saved in Microsoft Excel format for further processing and curve drawing and fitting was performed using GraphPad Prism. The background emission from ThT in the absence of fibrils was negligible. The data points are typically a mean of eight samples and shown with standard deviation error bars. Only data obtained in the same experiment (i.e. samples on the same plate) are presented in the same graph ensuring a relative measure of fibrillation between experiments.
The data set may be fitted to Eq. (1). However, since full sigmodial curves in this case are not usually achieved during the measurement time, the degree of fibrillation is expressed as ThT fluorescence at 20 and 40 hours, calculated as the mean of the eight samples and shown with the standard deviation.

Arg^34, Lys^26(N^ε-(γ-Glu(N^α-hexadecanoyl)))-GLP-1(7-37) [acylated GLP-1]
amide proton resonances of glutamic acid residue 9 and glycine residue 10 ([1]; 8 mM phosphate at pH 7.9 compared to non-buffered, 6 mg/ml): almost disappearance of amides protons resonances | protection of amide protons of Glu 9 and Gly 10 from water ([1]; aqueous solution without buffer substance versus 8 mM phosphate buffer): relatively more protected from the water molecules | self-assembly in solution ([1]; concentration range 1 to 30 mg/ml): bundle up in assemblies with several but well defined and limited number of acylated GLP-1 molecules | order and rigidity of the N-terminal ([1]; non buffered solution or buffered with HEPES, bicine or histidine, pH 7.9): more ordered and rigid | fibril formation ([2]; 8 mM phosphate, pH8.15): fibril formation is already observed | fibrillation ([2]; 10 mM BICINE buffer): without significantly increasing the fibrillation compared to water at pH7.89 | fibrillation ([2]; 10 mM HEPES buffer): without significantly increasing the fibrillation compared to water at pH7.89 | physical stability ([2]; 10 mM HEPES pH7.73): as physically stable as in 8 mM phosphate pH8.15 | physical stability ([2]; 10 mM HEPES, pH gradually lowered from pH7.9 to pH7.51): slightly more physically unstable | physical stability ([2]; 10 mM His, lowering the pH): only marginally less stable | physical stability ([2]; 10 mM His, pH 7.5): much more physically stable than acylated GLP-1 in non buffered aqueous solution pH7.5 | physical stability ([2]; 10 mM His, pH7.9): same physical stability of acylated GLP-1 as obtained in water at pH7.9 | physical stability ([2]; 10 mM MOPS): more physical stable than a solution in 8 mM phosphate at pH8.14 | fibrillation ([2]; 10 mM NaCl added to solution in water pH 7.9): promotes fibrillation | physical stability ([2]; 10 mM TES): more physical stable than a solution in 8 mM phosphate at pH8.14 | physical stability ([2]; aqueous solution non buffered or buffered with HEPES or BICINE, versus 8 mM phosphate pH7.92): significantly more physically stable | physical stability ([2]; dissolved in water rather than phosphate buffer (8 mM), 6 mg/ml, 40° C., 960 rpm): significant increase in physical stability | fibrillation lag-time ([2]; lowering pH in the interval pH 8.2 to pH 7.5, all examples): shorter and shorter fibrillation lag-times | tendency to fibril formation ([2]; phosphate lowered from 8 mM to 1 mM at pH7.9): Less tendency to fibril formation | fibrillation ([2]; water adjusted to pH7.85, incubated 45 hours): No significant fibrillation | fibrillation ([2]; water adjusted to pH8.14, incubated 45 hours): No significant fibrillation | physical stability ([2]; water at pH7.53): comparable with 8 mM phosphate pH7.88
